Experimental data reported in patent EP4813463A2, “TYK2 INHIBITORS AND COMPOSITIONS AND METHODS THEREOF” (Lynk Pharmaceuticals Co. Ltd., priority 2023, dated 2024).
Values after ≈ are worked out from the molar mass of the structure shown. Read-outs that look alike come from different tables or passages of the source.

Assays:
[1] = Kinetic solubility; assay type: physicochemical; conditions: kinetic from dmso stock, 100 mM pH 7.4 phosphate buffer, 1% DMSO, room temperature, read-out: Kinetics Solubility_PBS7.4
Outline: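 Compounds diluted from 10 mM/5 mM DMSO stocks into 100 mM phosphate buffer pH 7.4 (1% DMSO final), shaken 2 h at room temperature, then centrifuged. Dissolved compound in supernatant quantified by LC-MS/MS against a standard curve.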

[2] = biological target: T1, JAK1-JH2 domain (Homo sapiens, UniProt P23458); experiment: Binding activity test for JH2 domain of JAK1 (Tb-antibody/tracer FRET)
T1 construct: JAK1-JH2 domain or TYK2-JH2 domain enzyme in assay buffer
T1 sequence (P23458 583-855 limits assumed): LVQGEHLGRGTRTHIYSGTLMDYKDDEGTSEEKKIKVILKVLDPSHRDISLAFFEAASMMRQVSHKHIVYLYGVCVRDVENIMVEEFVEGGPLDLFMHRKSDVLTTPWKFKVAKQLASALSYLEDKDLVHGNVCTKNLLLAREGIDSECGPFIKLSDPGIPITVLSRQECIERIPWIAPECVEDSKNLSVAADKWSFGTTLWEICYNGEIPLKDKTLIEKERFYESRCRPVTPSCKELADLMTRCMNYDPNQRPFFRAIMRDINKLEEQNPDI
Outline: (§1)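 IC50 values (nM) come from TR-FRET readings taken after a 25°C incubation followed by overnight at 4°C. Each well held JH2 domain protein, Tb-antibody, tracer and test compound titrated in 11 threefold steps, with DMSO high and low controls.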

[3] = tested on: Ba/F3-FL-TYK2-P760L cells; experiment: Anti-proliferative assay in engineered Ba/F3 cells (Cell-Titer Glo, 72 h); assay type: cell-based; conditions: Mus musculus, concentration that causes 50% growth inhibition, read-out: Baf3-FL-T2P760L
Outline: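 IC50 from luminescent ATP viability after 72 h compound exposure (37 °C, 5% CO2), % inhibition normalised to DMSO-treated cells minus medium blank. IL-3-free Ba/F3-FL-TYK2-P760L (Tel-JAK fusion) cells in 10% FBS RPMI-1640 received 9 three-fold doses, top 20 µM, 0.1% DMSO.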

[4] = biological target: T2, TYK2-JH2 domain (Homo sapiens, UniProt P29597); experiment: Binding activity test for JH2 domain of TYK2 (Tb-antibody/tracer FRET)
T2 construct: JAK1-JH2 domain or TYK2-JH2 domain enzyme in assay buffer
T2 sequence (P29597 589-875 limits assumed): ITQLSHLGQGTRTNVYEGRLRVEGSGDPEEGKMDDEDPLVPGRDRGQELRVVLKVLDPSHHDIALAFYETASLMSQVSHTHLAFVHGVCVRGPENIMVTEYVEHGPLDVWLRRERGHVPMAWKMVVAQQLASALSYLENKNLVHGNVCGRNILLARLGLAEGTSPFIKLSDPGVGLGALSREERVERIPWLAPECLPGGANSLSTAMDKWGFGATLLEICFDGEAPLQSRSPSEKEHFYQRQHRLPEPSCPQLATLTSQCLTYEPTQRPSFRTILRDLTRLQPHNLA
Outline: as §1

[5] = biological target: T3, JAK2 (Homo sapiens, UniProt O60674); experiment: JAK2 kinase activity, microfluidic assay (Caliper EZ Reader II, FAM labeled peptide substrate); assay type: biochemical; conditions: JAK2 1.5 nM, 1 mM ATP
T3 construct: purchased Carna Biosciences
T3 sequence (O60674 849-1124 limits assumed): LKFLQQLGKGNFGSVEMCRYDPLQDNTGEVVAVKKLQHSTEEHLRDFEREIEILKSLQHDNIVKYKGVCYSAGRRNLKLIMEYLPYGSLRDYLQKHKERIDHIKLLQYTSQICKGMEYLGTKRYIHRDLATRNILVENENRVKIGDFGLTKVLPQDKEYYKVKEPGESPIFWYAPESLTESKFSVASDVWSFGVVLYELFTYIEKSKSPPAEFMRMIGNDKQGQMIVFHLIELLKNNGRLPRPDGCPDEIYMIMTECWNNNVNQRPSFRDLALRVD
Procedure: (§2) Testing for JAK1, JAK2 and TYK2 Kinase Activities
(§3) JAK activity was determined in the reaction buffer 50 mM HEPES, 0.01% Brij35, 10 mM MgCl2, 2 mM DTT by a microfluidic assay. The phosphorylation of a FAM labeled peptide substrate was monitored in the Caliper EZ Reader II (Perkin Elmer). The assay condition for each batch of enzyme (Carna Biosciences) was optimized to obtain 10% conversion rate of peptide substrate.
(§4) The test compounds were dissolved in DMSO to a stock concentration of 10 mM. Three-fold serially diluted compounds with top concentration of 5 µM were pre-incubated with JAK1, JAK2 or TYK2 for 10 min at ambient temperature. The final DMSO concentration of assay mixture was 1%. […] The reaction was stopped by adding 50 mM EDTA.
(§5) And the well without compound but with equivalent DMSO was defined as no inhibition. The percent inhibition was calculated by the following formula: % Inhibition = (Conversion%_max−Conversion%_sample)/(Conversion%_max−Conversion%_min) × 100 [formula] wherein • Conversion%_ max = the conversion rate in the positive well without addition of compound • Conversion%_ sample = the conversion rate of test compounds • Conversion%_ min = the conversion rate in the well without addition of enzyme
(§6) The dose-response (percent inhibition) curve was plotted and IC50 values were determined by GraphPad software. The IC50 values of tested compounds were list in Table 3. Table 3. JAK1, JAK2 and TYK2 IC50 Values of Illustrative Compounds

[6] = biological target: T4, TYK2 (Homo sapiens, UniProt P29597); experiment: TYK2 kinase activity, microfluidic assay (Caliper EZ Reader II, FAM labeled peptide substrate); assay type: biochemical; conditions: TYK2 20 nM, 1 mM ATP
T4 construct: purchased Carna Biosciences
T4 sequence (P29597 897-1176 limits assumed): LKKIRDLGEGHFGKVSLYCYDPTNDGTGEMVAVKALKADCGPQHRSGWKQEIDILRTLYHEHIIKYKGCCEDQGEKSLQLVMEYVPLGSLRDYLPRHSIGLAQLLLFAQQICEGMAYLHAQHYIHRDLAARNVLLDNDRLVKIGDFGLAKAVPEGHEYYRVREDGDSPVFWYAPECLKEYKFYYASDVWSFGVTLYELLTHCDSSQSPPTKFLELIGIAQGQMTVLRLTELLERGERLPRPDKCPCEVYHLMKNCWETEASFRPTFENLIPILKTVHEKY
Procedure: as §2, §3, §4, §5, §6

[7] = ratio of JAK1 JH2 to TYK2 JH2 binding IC50
[8] = phosphate buffer, pH 7.4, aqueous buffer
[9] = JH2 domain enzyme; 60 min at 25°C, then 4°C overnight; read-out: JAK1 JH2 Binding IC50
[10] = BaF3, 72 h, 72 h compound treatment
[11] = JH2 domain enzyme; 60 min at 25°C, then 4°C overnight; read-out: TYK2 JH2 Binding IC50

In the case of COC(=O)c1cnc(NC(=O)[C@@H]2C[C@@H]2F)cc1Nc1nn(C)c2ccc(C(O)C(F)(F)F)c(OC)c12 (single isomer, unassigned) [Example 122A, Methyl 6-((1S,2S)-2-fluorocyclopropane-1-carboxamido)-4-((4-methoxy-1-methyl-5-((S*)-2,2,2-trifluoro-1-hydroxyethyl)-1H-indazol-3-yl)amino) nicotinate], the solubility kinetic at 2 h ([1]; aqueous buffer) is reported as 10.3 µM (≈ 5.27 µg/mL), the IC50 ([2]; read-out: JAK1 JH2 Binding IC50; JH2 domain enzyme; 60 min at 25°C, then 4°C overnight) is reported as 15.6 nM and the IC50 ([3]; BaF3, 72 h compound treatment) is reported as 0.8 nM. The JAK1/TYK2 selectivity [4, 7] was 216.29 and the IC50 ([4]; read-out: TYK2 JH2 Binding IC50; JH2 domain enzyme; 60 min at 25°C, then 4°C overnight) was 0.072 nM.

Work on [2H]C([2H])([2H])NC(=O)c1cnc(NC(=O)C2CC2)cc1Nc1cnn2ccc([C@H](O)C(F)(F)F)c(OC)c12 [Example 7A, (S)-6-(cyclopropanecarboxamido)-4-((4-methoxy-5-(2,2,2-trifluoro-1-hydroxyethyl)pyrazolo[1,5-a]pyridin-3-yl)amino)-N-(methyl-d3)nicotinamide] yielded an IC50 [5] greater than 20000 nM, a solubility kinetic at 2 h [1, 8] of 52.1 µM (≈ 25.1 µg/mL) and an IC50 [6] greater than 20000 nM. It also gave an IC50 [2, 9] of 10.4 nM, an IC50 [3, 10] of 5.4 nM and an IC50 [4, 11] of 0.097 nM. It also gave a JAK1/TYK2 selectivity [4, 7] of 107.6.

Work on [2H]C([2H])([2H])NC(=O)c1cnc(NC(=O)C2CC2)cc1Nc1cnn2ccc([C@@H](O)C(F)(F)F)c(OC)c12 [Example 7B, (R)-6-(cyclopropanecarboxamido)-4-((4-methoxy-5-(2,2,2-trifluoro-1-hydroxyethyl)pyrazolo[1,5-a]pyridin-3-yl)amino)-N-(methyl-d3)nicotinamide] yielded an IC50 [5] greater than 20000 nM, a solubility kinetic at 2 h [1, 8] of 55.8 µM (≈ 26.9 µg/mL) and an IC50 [6] greater than 20000 nM. The IC50 [2, 9] was 12.9 nM, the IC50 [3, 10] was 223 nM and the IC50 [4, 11] was 0.528 nM. The JAK1/TYK2 selectivity [4, 7] was 24.4.

Compound [2H]C([2H])([2H])NC(=O)c1cnc(Nc2ccn(C)n2)cc1Nc1cnn2ccc([C@H](O)C(F)(F)F)c(OC)c12 [Example 21, (S)-4-((4-methoxy-5-(2,2,2-trifluoro-1-hydroxyethyl)pyrazolo[1,5-a]pyridin-3-yl)amino)-N-(methyl-d3)-6-((1-methyl-1H-pyrazol-3-yl)amino)nicotinamide] has an IC50 [5] greater than 20000 nM, a solubility kinetic at 2 h [1, 8] of 57.2 µM (≈ 28.2 µg/mL) and an IC50 [6] greater than 20000 nM. For the same compound, the IC50 [2, 9] was 11 nM, the IC50 [3, 10] was 15.7 nM and the IC50 [4, 11] was 0.077 nM. The JAK1/TYK2 selectivity [4, 7] was 142.7.

Work on [2H]C([2H])([2H])NC(=O)c1cnc(Nc2cc(C)nc(C)n2)cc1Nc1cnn2ccc([C@H](O)C(F)(F)F)c(OC)c12 [Example 25, (S)-6-((2,6-Dimethylpyrimidin-4-yl)amino)-4-((4-methoxy-5-(2,2,2-trifluoro-1-hydroxyethyl)pyrazolo[1,5-a]pyridin-3-yl)amino)-N-(methyl-d3)nicotinamide] yielded an IC50 [5] greater than 20000 nM, a solubility kinetic at 2 h [1, 8] of 43 µM (≈ 22.3 µg/mL) and an IC50 [6] greater than 20000 nM. The IC50 [2, 9] was 11.5 nM, the IC50 [3, 10] was 5.01 nM and the IC50 [4, 11] was 0.068 nM. It also gave a JAK1/TYK2 selectivity [4, 7] of 169.1.

[2H]C([2H])([2H])NC(=O)c1cnc(NC(=O)C2CC2)cc1Nc1cnn2ccc([C@H](OC)C(F)(F)F)c(OC)c12 [Example 27, (S)-6-(cyclopropanecarboxamido)-4-((4-methoxy-5-(2,2,2-trifluoro-1-methoxyethyl)pyrazolo[1,5-a]pyridin-3-yl)amino)-N-(methyl-d3)nicotinamide] showed an IC50 [5] greater than 20000 nM, a solubility kinetic at 2 h [1, 8] of 14.2 µM (≈ 7.06 µg/mL) and an IC50 [6] greater than 20000 nM. The IC50 [2, 9] was 8.19 nM, the IC50 [3, 10] was 8.54 nM and the IC50 [4, 11] was 0.064 nM. For the same compound, the JAK1/TYK2 selectivity [4, 7] was 128.0.

[2H]C([2H])([2H])NC(=O)c1nnc(NC(=O)C2CC2)cc1Nc1cnn2ccc([C@H](O)C(F)(F)F)c(OC)c12 [Example 30, (S)-6-(cyclopropanecarboxamido)-4-((4-methoxy-5-(2,2,2-trifluoro-1-hydroxyethyl)pyrazolo[1,5-a]pyridin-3-yl)amino)-N-(methyl-d3)pyridazine-3-carboxamide] gave an IC50 [5] greater than 20000 nM, a solubility kinetic at 2 h [1, 8] of 42 µM (≈ 20.2 µg/mL) and an IC50 [6] greater than 20000 nM. For the same compound, the IC50 [2, 9] was 10.9 nM, the IC50 [3, 10] was 7.96 nM and the IC50 [4, 11] was 0.088 nM. The JAK1/TYK2 selectivity [4, 7] was 124.4.

Work on COC(=O)c1cnc(NC(=O)C2CC2)cc1Nc1nn(C)c2ccc([C@H](OC)C(F)(F)F)c(OC)c12 [Example 45B, Methyl (S)-6-(cyclopropanecarboxamido)-4-((4-methoxy-1-methyl-5-(2,2,2-trifluoro-1-methoxyethyl)-1H-indazol-3-yl)amino)nicotinate] yielded a solubility kinetic at 2 h [1, 8] of 9.37 µM (≈ 4.75 µg/mL), an IC50 [2, 9] of 24.5 nM and an IC50 [3, 10] of 2.53 nM. For the same compound, the IC50 [4, 11] was 0.124 nM and the JAK1/TYK2 selectivity [4, 7] was 197.30.

COC(=O)c1cnc(NC(=O)C2CC2)cc1Nc1nn(C)c2ccc([C@H](O)C(F)(F)F)c(OC)c12 [Example 48A, Methyl (S)-6-(cyclopropanecarboxamido)-4-((4-methoxy-1-methyl-5-(2,2,2-trifluoro-1-hydroxyethyl)-1H-indazol-3-yl)amino)nicotinate] showed an IC50 [5] greater than 5000 nM, a solubility kinetic at 2 h [1, 8] of 6.98 µM (≈ 3.44 µg/mL) and an IC50 [6] greater than 5000 nM. It also gave an IC50 [2, 9] of 23 nM, an IC50 [3, 10] of 1.5 nM and an IC50 [4, 11] of 0.145 nM. For the same compound, the JAK1/TYK2 selectivity [4, 7] was 158.89.

For [2H]C([2H])([2H])NC(=O)c1cnc(NC(=O)C2CC2)cc1Nc1nn(C)c2ccc([C@H](O)C(F)(F)F)c(OC)c12 [Example 49A, (S)-6-(cyclopropanecarboxamido)-4-((4-methoxy-1-methyl-5-(2,2,2-trifluoro-1-hydroxyethyl)-1H-indazol-3-yl)amino)-N-(methyl-d3)nicotinamide], the IC50 [5] was greater than 10000 nM, the solubility kinetic at 2 h [1, 8] was 45.5 µM (≈ 22.5 µg/mL) and the IC50 [6] was greater than 5000 nM. For the same compound, the IC50 [2, 9] was 5.28 nM, the IC50 [3, 10] was 0.464 nM and the IC50 [4, 11] was 0.107 nM. The JAK1/TYK2 selectivity [4, 7] was 49.3.

For [2H]C([2H])([2H])O[C@@H](c1ccc2c(c(Nc3cc(NC(=O)C4CC4)ncc3C(=O)OC)nn2C)c1OC)C(F)(F)F [Example 50B, Methyl (S)-6-(cyclopropanecarboxamido)-4-((4-methoxy-1-methyl-5-(2,2,2-trifluoro-1-(methoxy-d3)ethyl)-1H-indazol-3-yl)amino)nicotinate], the IC50 [5] was greater than 5000 nM, the solubility kinetic at 2 h [1, 8] was 7.23 µM (≈ 3.69 µg/mL) and the IC50 [6] was greater than 5000 nM. The IC50 [2, 9] was 28.8 nM, the IC50 [3, 10] was 2.85 nM and the IC50 [4, 11] was 0.177 nM. For the same compound, the JAK1/TYK2 selectivity [4, 7] was 162.94.

In the case of [2H]C([2H])([2H])NC(=O)c1cnc(NC(=O)C2CC2)cc1Nc1nn(C)c2ccc([C@H](OC([2H])([2H])[2H])C(F)(F)F)c(OC)c12 [Example 55A, (S)-6-(cyclopropanecarboxamido)-4-((4-methoxy-1-methyl-5-(2,2,2-trifluoro-1-(methoxy-d3)ethyl)-1H-indazol-3-yl)amino)-N-(methyl-d3)nicotinamide], the IC50 [5] is reported as greater than 10000 nM, the solubility kinetic at 2 h [1, 8] is reported as 7.78 µM (≈ 3.99 µg/mL) and the IC50 [6] is reported as greater than 5000 nM. The IC50 [2, 9] was 2.54 nM, the IC50 [3, 10] was 0.352 nM and the IC50 [4, 11] was 0.052 nM. The JAK1/TYK2 selectivity [4, 7] was 48.9.
